# Assay results reported in PMC2999418, “Biological Activity and Binding Site Characteristics of the PA1b Entomotoxin on Insects from Different Orders” (Journal of Insect Science, 2007).
# What was measured:
# Harmonia axyridis = test: Ladybeetle development and survival on artificial diet supplemented with toxin; assay type: in vivo; conditions: 250 µg/g of food
# Procedure: The ladybeetle Harmonia axyridis (Coleoptera) was grown on a pork liver-based artificial diet (Specty et al., unpublished results), and tests were performed using a diet supplemented with the toxin. The development was monitored from L3 up to the pupal stage.
# (§1) All toxicity assays were carried out using a mixture of PA1b isoforms (98% purity by HPLC). All tests were performed on at least 30 insects for assays and for control test (without toxin), except for the three aphid species (50 insects) and for Trichogramma (more than 300 eggs by assays). When adults were used, the insects were synchronized at the imaginal molt. The statistical analyses were performed using the JMP software (SAS, Grégy-sur-Yerres FRA).
# Figure 1. Effects of PA1b on the lady beetle H. axyridis. Tests were done with artificial diet supplemented with the toxin (250 µg/g), and the development of the insects was monitored daily. First bar, control insects; second bar, tested insects. P, Pupae; pP, Pre-pupae; L4,4th instar larvae; L3, 3rd instar larvae.
# Tribolium castaneum = test: Red flour beetle adult toxicity test, toxin mixed into diet; assay type: in vivo; conditions: 1000 µg per g of food, feeding for 15 days
# Procedure: The red flour beetle Tribolium castaneum (Coleoptera), was provided by François Bonneton (Centre de Génétique Moléculaire Cellulaire, Lyon, France). Tests were performed on adults by mixing the toxin into the diet (wheat flour 95%, yeast extract 5%).
# as §1
# Trichogramma pretiosum = test: Trichogramma development from eggs to adults on artificial diet with toxin; assay type: in vivo; conditions: PA1b added to artificial diet; no difference in developmental times compared to control
# Procedure: Trichogramma pretiosium. T191 (Hymenoptera) were grown using the artificial diet described in Grenier et al. ([1998]). The toxin was incorporated into the diet, and the development of insects was monitored from eggs to adults.
# as §1
# [1] = biological target: PA1b binding protein on membrane extracts; test: 125I-PA1b binding (competition) on insect membrane extracts; set-up: species or system Mamestra brassicae; conditions: M. brassicae membrane extracts; competition with purified 3741 isoform
# Procedure: (§2) The isolation of membrane proteins for binding studies was performed as described by Gressent et al. ([2003]). For PA1b degradation tests, insect extracts were prepared as follows, 1 g of insects were ground with a mortar and pestle in liquid nitrogen. The resulting powder was resuspended in 2 ml of extraction buffer (20 mM Tris-HCl pH 8; 0.25 M sucrose; 2 mM MgCl2). The slurry was centrifuged for 2 min at 1000 g, and the supernatant was stored at -2O°C until required. All the operations were performed at 4°C.
# (§3) The peptidic toxin PA1b-3471 isoform was labelled with I^125 to a specific radioactivity of about 900 Ci.mmor^-1, and then used for binding studies with membrane extracts, according to Gressent et al. ([2003]).
# (§4) PA1b binding activity was present in all insect species, except for the resistant weevil strains and the pea specific pest Bruchus pisorum, regardless of the sensitivity or insensitivity of these insects to PA1b toxicity, as evaluated from our insect bioassays. […] The relative abundance of the binding sites was also slightly different in this group of species, varying from 10 pmol/mg of protein for T. pretiosum to a maximum of 79 pmol/mg of protein for M. persicae.
# [2] = biological target: PA1b binding protein on membrane extracts; test: as above; set-up: species or system Drosophila melanogaster; conditions: D. melanogaster membrane extracts; competition with purified 3741 isoform
# Procedure: as §2, §3, §4
# [3] = biological target: PA1b binding protein on membrane extracts; test: as above; set-up: species or system Myzus persicae; conditions: M. persicae membrane extracts; competition with purified 3741 isoform
# Procedure: as §2, §3, §4
# pronase E type XIV = test: PA1b degradation assay with commercial protease; assay type: in vitro ADME; conditions: 10 µg pronase E, 37°C, one night incubation, C18 HPLC
# Procedure: PA1b degradation assays were performed using 10 µg of peptide (PA1b isoform mixture) in a final volume of 100 µl buffer. Assays with commercially (SIGMA, www.sigmaaldrich.com) available enzymes were performed in Glycine-NaOH buffer (20 mM pH 9) at 3O°C for proteinase K (E.C. 3.4.21.64), Tris-HCl buffer (20 mM pH 7.5) + EDTA 10 mM at 37°C for pronase E type XIV, MES-NaOH buffer (20 mM pH 6.2) at 25°C for papain (E.C. 3.4.22.2), Tris-HCl buffer (20 mM pH 7.8) at 25°C for chymotrypsin (E.C. 3.4.21.1), and Tris-HCl buffer (20 mM pH 7.6) at 25°C for trypsin (E.C. 3.4.21.4). Assays were done with 10 µg of each enzyme, and control assays were performed with 10 µg of enzymes denaturated by 10 min boiling. Assays with insect extracts were carried out in 20 mM buffers from pH 3 to 9 (Glycine-HCl, pH 3; sodium acetate pH 4-5; MES-NaOH pH 6; Tris-HCl pH 7-8; Glycine NaOH pH 9) at 3O°C. […]
# (§5) For all assays, after a one night incubation, 150 µl of methanol were added to the mixture and incubated for 60 min at 4°C. […] PA1b peptide isoforms were detected by their absorbance at 210 nm, quantified by the measurement of the peak area and with reference to known quantities of pure peptide isoform used as standards.
# [4] = system: A. gossypii protein extracts; test: PA1b degradation assay with total insect protein extract; assay type: in vitro ADME, Aphis gossypii; conditions: 200 µg A. gossypii (L4) proteins, 10 µg PA1b in 100 µl, 20 mM buffers pH 3 to 9, 30°C, one night incubation; C18 HPLC, UV 210 nm; mean of triplicates
# Procedure: as §2
# (§6) PA1b degradation assays were performed using 10 µg of peptide (PA1b isoform mixture) in a final volume of 100 µl buffer. […]
# as §5
# Figure 3. […] Degradation of PA1b was monitored after incubation by reverse-phase HPLC. […]
# [5] = system: M. brassicae protein extracts; test: as above; assay type: in vitro ADME, Mamestra brassicae; conditions: 200 µg M. brassicae (L3) total protein extract, 10 µg PA1b, pH 3 to 9, 30°C, one night incubation; C18 HPLC; data not shown
# Procedure: as §2, §6, §5
# Sitophilus oryzae = conditions: three natural S. oryzae strains able to feed on pea seeds; ref Grenier et al. 1997; cited from earlier work
# Text: S. oryzae strains resistant to PA1b exist naturally.
sequence,measurement,setting,value
"ASCNGVCSPFEMPPCGTSACRCIPVGLVIGYCR NPSG (bicyclic or more) [PA1b, plant peptide of 37 amino acids purified from pea (Pisum sativum) seeds; entomotoxic cystine-knot peptide with three disulfide bonds]",share of survivors that reached the pupal stage,Harmonia axyridis; by day 12,half
same,insects that reached the L4 stage,"Harmonia axyridis; started on L3 larvae, after three days (all control insects reached L4)",30%
same,survival,"Harmonia axyridis; started on L3 larvae, by day 12 (control 75%)",15%
same,effects on adults,Tribolium castaneum,no effects were detectable
same,survival of adults,Tribolium castaneum,all insects survived
same,growth and development from eggs to adults,Trichogramma pretiosum,normal growth
same,Kd,[1],20 nM
same,Kd,[2],16 nM
same,Kd,[3],62 nM
same,"PA1b recovered after pronase E treatment, relative to control","pronase E type XIV; 10 µg PA1b, Tris-HCl pH 7.5 + EDTA 10 mM",20 % of the control
same,"Recovered PA1b, Assays","pronase E type XIV; 10 µg PA1b isoform mixture in 100 µl Tris-HCl 20 mM pH 7.5 + EDTA 10 mM, UV 210 nm, mean of triplicates",1.7 µg
same,recovered PA1b after incubation with insect proteins versus heat-denatured control,[4],very close to the control test
same,recovered PA1b after incubation with insect proteins versus heat-denatured control,[5],without any difference between control and test assays
same,resistance of pea-feeding S. oryzae strains to the purified toxin,Sitophilus oryzae,fully resistant
